The structures appear in SMILES notation.

This assay has as its target T1, hFXR (Homo sapiens, UniProt Q96RI1).
T1 construct: expressed in transfected cells; host or cells: CV-1 cells
T1 sequence (Q96RI1 1-486): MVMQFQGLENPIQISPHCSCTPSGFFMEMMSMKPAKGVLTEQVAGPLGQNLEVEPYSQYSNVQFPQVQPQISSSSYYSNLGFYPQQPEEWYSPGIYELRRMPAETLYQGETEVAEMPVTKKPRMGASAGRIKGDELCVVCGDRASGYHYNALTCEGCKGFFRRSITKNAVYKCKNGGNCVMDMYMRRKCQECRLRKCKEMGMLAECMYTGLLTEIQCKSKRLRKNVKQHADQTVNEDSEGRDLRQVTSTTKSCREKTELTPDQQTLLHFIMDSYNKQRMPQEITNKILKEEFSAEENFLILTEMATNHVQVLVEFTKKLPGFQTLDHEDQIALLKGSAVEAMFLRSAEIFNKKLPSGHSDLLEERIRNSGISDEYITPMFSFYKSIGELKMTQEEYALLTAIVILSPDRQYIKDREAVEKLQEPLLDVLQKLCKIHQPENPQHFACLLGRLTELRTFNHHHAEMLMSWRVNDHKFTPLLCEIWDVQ
T1 sequence (P19793 1-462 partner): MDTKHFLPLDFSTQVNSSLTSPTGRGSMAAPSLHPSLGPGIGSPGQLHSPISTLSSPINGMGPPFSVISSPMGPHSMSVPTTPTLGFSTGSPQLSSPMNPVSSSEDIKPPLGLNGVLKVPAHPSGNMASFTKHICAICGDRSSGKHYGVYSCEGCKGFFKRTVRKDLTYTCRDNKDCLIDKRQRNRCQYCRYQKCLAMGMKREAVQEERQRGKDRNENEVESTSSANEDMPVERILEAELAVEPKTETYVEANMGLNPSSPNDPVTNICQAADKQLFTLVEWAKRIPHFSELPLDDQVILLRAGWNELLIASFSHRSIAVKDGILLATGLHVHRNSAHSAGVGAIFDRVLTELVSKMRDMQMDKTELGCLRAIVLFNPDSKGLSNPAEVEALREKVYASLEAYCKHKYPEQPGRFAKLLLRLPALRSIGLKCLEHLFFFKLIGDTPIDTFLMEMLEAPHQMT
Nature of the assay: In Vitro FXR Assay (TK): TK-ECRE-luc reporter in transfected CV-1 cells. It counts as cell-based. Conditions: 18 hrs, luminescence, maximum efficacy of <25% of the Fexarmine control classified as '+'. In short, it runs like this:
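Luciferase luminescence read-out from lysed CV-1 cells transiently co-expressing hFXR and hRXR with a TK-ECRE-luc reporter (pCMX-YFP co-transfected). Compound exposure lasted 18 h at 37 °C, 5% CO2, in medium containing charcoal super-stripped serum.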
On to `COc1ccc([C@H]2CC[C@H](CN(c3cc(-c4coc(C5CC5)n4)ccn3)C(=O)[C@H]3CC[C@H](OC(=O)NC4COC4)CC3)CC2)nc1C` [Compound 6.60, trans-4-((4-(2-Cyclopropyloxazol-4-yl)pyridine-2-yl)((trans-4-(5-methoxy-6-methylpyridin-2-yl)cyclohexyl)methyl)carbamoyl)cyclohexyl oxetan-3-ylcarbamate], for which the half-maximal effective concentration (EC50) (as a rule, the concentration at which the effect is half-maximal) is at most 250 nM.

Molecule `COc1ccc([C@H]2CC[C@H](CN(c3cc(-c4coc(C5CC5)n4)ccn3)C(=O)[C@H]3CC[C@H](OC(=O)N4CC(S(C)(=O)=O)C4)CC3)CC2)nc1C` [Compound 6.61] yielded an EC50 of at most 250 nM.

As for `COc1ccc([C@H]2CC[C@H](CN(c3cc(-c4coc(C5CC5)n4)ccn3)C(=O)[C@H]3CC[C@H](OC(=O)NCCCO)CC3)CC2)nc1C` [Compound 6.62], the EC50 is at most 250 nM.

In turn, `COCCN(C)C(=O)O[C@H]1CC[C@H](C(=O)N(C[C@H]2CC[C@H](c3ccc(OC)c(C)n3)CC2)c2cc(-c3coc(C4CC4)n3)ccn2)CC1` [Compound 6.63] came in with an EC50 of at most 250 nM.

For the molecule `COc1ccc([C@H]2CC[C@H](CN(c3cc(-c4coc(C5CC5)n4)ccn3)C(=O)[C@H]3CC[C@H](OC(=O)N4CCN(C)CC4)CC3)CC2)cc1C` [Compound 6.64, trans-4-((4-(2-Cyclopropyloxazol-4-yl)pyridine-2-yl)((trans-4-(4-methoxy-3-methylphenyl)cyclohexyl)methyl)carbamoyl)cyclohexyl 4-methylpiperazine-1-carboxylate], the EC50 is at most 250 nM.

For the molecule `COc1ccc([C@H]2CC[C@H](CN(c3cc(-c4coc(C5CC5)n4)ccn3)C(=O)[C@H]3CC[C@H](OC(=O)N4CCN(C)CC4)CC3)CC2)nc1C` [Compound 6.65, trans-4-((4-(2-Cyclopropyloxazol-4-yl)pyridine-2-yl)((trans-4-(5-methoxy-6-methylpyridin-2-yl)cyclohexyl)methyl)carbamoyl)cyclohexyl 4-methylpiperazine-1-carboxylate], the EC50 is at most 250 nM.

Consider `COc1ccc([C@H]2CC[C@H](CN(c3cc(-c4coc(C5CC5)n4)ccn3)C(=O)[C@H]3CC[C@H](OC(=O)NC[C@H](O)CO)CC3)CC2)nc1C` [Compound 6.66, trans-4-((4-(2-Cyclopropyloxazol-4-yl)pyridine-2-yl)((trans-4-(5-methoxy-6-methylpyridin-2-yl)cyclohexyl)methyl)carbamoyl)cyclohexyl ((S)-2,3-dihydroxypropyl)carbamate], for which the EC50 is 250 to 1000 nM.

Regarding `COc1ccc([C@H]2CC[C@H](CN(c3cc(-c4coc(C5CC5)n4)ccn3)C(=O)[C@H]3CC[C@H](OC(=O)N(C)CC(C)O)CC3)CC2)nc1C` (stereo partly drawn) [Compound 6.67, trans-4-((4-(2-Cyclopropyloxazol-4-yl)pyridin-2-yl)((trans-4-(5-methoxy-6-methylpyridin-2-yl)cyclohexyl)methyl)carbamoyl)cyclohexyl(2-hydroxypropyl)(methyl)carbamate], the EC50 is at most 250 nM.

Regarding `COc1ccc([C@H]2CC[C@H](CN(c3cc(-c4coc(C5CC5)n4)ccn3)C(=O)[C@H]3CC[C@H](OC(=O)NCC(C)(O)C(C)C)CC3)CC2)nc1C` (stereo partly drawn) [Compound 6.68, trans-4-((4-(2-Cyclopropyloxazol-4-yl)pyridin-2-yl)((trans-4-(5-methoxy-6-methylpyridin-2-yl)cyclohexyl)methyl)carbamoyl)cyclohexyl (2-hydroxy-2,3-dimethylbutyl)carbamate], the EC50 was at most 250 nM.

`CCC(C)(O)CNC(=O)O[C@H]1CC[C@H](C(=O)N(C[C@H]2CC[C@H](c3ccc(OC)c(C)n3)CC2)c2cc(-c3coc(C4CC4)n3)ccn2)CC1` (stereo partly drawn) [Compound 6.69, trans-4-((4-(2-Cyclopropyloxazol-4-yl)pyridin-2-yl)((trans-4-(5-methoxy-6-methylpyridin-2-yl)cyclohexyl)methyl)carbamoyl)cyclohexyl (2-hydroxy-2-methylbutyl)carbamate] had a half-maximal effective concentration (EC50) of at most 250 nM.

`COc1ccc([C@H]2CC[C@H](CN(c3cc(-c4coc(C5CC5)n4)ccn3)C(=O)[C@H]3CC[C@H](OC(=O)NCC(C)(C)O)CC3)CC2)nc1C` [Compound 6.70, trans-4-((4-(2-Cyclopropyloxazol-4-yl)pyridin-2-yl)((trans-4-(5-methoxy-6-methylpyridin-2-yl)cyclohexyl)methyl)carbamoyl)cyclohexyl (2-hydroxy-2-methylpropyl)carbamate] showed an EC50 of at most 250 nM.

As to `COc1ccc([C@H]2CC[C@H](CN(c3cc(-c4coc(C5CC5)n4)ccn3)C(=O)[C@H]3CC[C@H](OC(=O)NC(C)CO)CC3)CC2)nc1C` (stereo partly drawn) [Compound 6.71, trans-4-((4-(2-Cyclopropyloxazol-4-yl)pyridin-2-yl)((trans-4-(5-methoxy-6-methylpyridin-2-yl)cyclohexyl)methyl)carbamoyl)cyclohexyl (1-hydroxypropan-2-yl)carbamate], the EC50 is at most 250 nM.

`COc1ccc([C@H]2CC[C@H](CN(c3cc(-c4coc(C5CC5)n4)ccn3)C(=O)[C@H]3CC[C@H](OC(=O)NCC(C)O)CC3)CC2)nc1C` (stereo partly drawn) [Compound 6.72, trans-4-((4-(2-Cyclopropyloxazol-4-yl)pyridin-2-yl)((trans-4-(5-methoxy-6-methylpyridin-2-yl)cyclohexyl)methyl)carbamoyl)cyclohexyl (2-hydroxypropyl)carbamate] showed an EC50 of at most 250 nM.

For `COc1ccc([C@H]2CC[C@H](CN(c3cc(-c4coc(C5CC5)n4)ccn3)C(=O)[C@H]3CC[C@H](OC(=O)NC(C)C(C)O)CC3)CC2)nc1C` (stereo partly drawn) [Compound 6.73, trans-4-((4-(2-Cyclopropyloxazol-4-yl)pyridin-2-yl)((trans-4-(5-methoxy-6-methylpyridin-2-yl)cyclohexyl)methyl)carbamoyl)cyclohexyl (3-hydroxybutan-2-yl)carbamate], the EC50 is at most 250 nM.

For the molecule `CCN(CCO)C(=O)O[C@H]1CC[C@H](C(=O)N(C[C@H]2CC[C@H](c3ccc(OC)c(C)n3)CC2)c2cc(-c3coc(C4CC4)n3)ccn2)CC1` [Compound 6.74, trans-4-((4-(2-Cyclopropyloxazol-4-yl)pyridin-2-yl)((trans-4-(5-methoxy-6-methylpyridin-2-yl)cyclohexyl)methyl)carbamoyl)cyclohexyl ethyl(2-hydroxyethyl)carbamate], the EC50 is at most 250 nM.

In the case of `COc1ccc([C@H]2CC[C@H](CN(c3cc(-c4coc(C(C)C)n4)ccn3)C(=O)[C@H]3CC[C@H](OC(=O)N4CC(S(C)(=O)=O)C4)CC3)CC2)nc1C` [Compound 6.75, trans-4-((4-(2-Isopropyloxazol-4-yl)pyridine-2-yl)((trans-4-(5-methoxy-6-methylpyridin-2-yl)cyclohexyl)methyl)carbamoyl)cyclohexyl 3-(methylsulfonyl)azetidine-1-carboxylate], the EC50 is at most 250 nM.

Turning to `COc1ccc([C@H]2CC[C@H](CN(c3cc(-c4coc(C5CC5)n4)ccn3)C(=O)[C@H]3CC[C@H](OC(=O)N4CC(OCCO)C4)CC3)CC2)nc1C` [Compound 6.76, trans-4-((4-(2-Cyclopropyloxazol-4-yl)pyridine-2-yl)((trans-4-(5-methoxy-6-methylpyridin-2-yl)cyclohexyl)methyl)carbamoyl)cyclohexyl 3-(2-hydroxyethoxy)azetidine-1-carboxylate], the EC50 was at most 250 nM.

The molecule `COc1ccc([C@H]2CC[C@H](CN(c3cc(-c4coc(C(C)C)n4)ccn3)C(=O)[C@H]3CC[C@H](OC(=O)N4CCN(C)CC4)CC3)CC2)nc1C` [Compound 6.77, trans-4-((4-(2-Isopropyloxazol-4-yl)pyridine-2-yl)((trans-4-(5-methoxy-6-methylpyridin-2-yl)cyclohexyl)methyl)carbamoyl)cyclohexyl 4-methylpiperazine-1-carboxylate] registered an EC50 of at most 250 nM.

The molecule `COc1ccc([C@H]2CC[C@H](CN(c3cc(-c4coc(C5CC5)n4)ccn3)C(=O)[C@H]3CC[C@H](OC(=O)N4CCNCC4)CC3)CC2)nc1C` [Compound 6.78, trans-4-(4-(2-Cyclopropyloxazol-4-yl)pyridine-2-yl)((trans-4-(5-methoxy-6-methylpyridin-2-yl)cyclohexyl)methyl) carbamoyl)cyclohexylpiperazine-1-carboxylate] displayed an EC50 of 250 to 1000 nM.

`COc1ccc([C@H]2CC[C@H](CN(c3cc(-c4coc(C5CC5)n4)ccn3)C(=O)[C@H]3CC[C@H](OC(=O)NC4CCN(C)CC4)CC3)CC2)nc1C` [Compound 6.79, trans-4-((4-(2-Cyclopropyloxazol-4-yl)pyridine-2-yl)((trans-4-(5-methoxy-6-methylpyridin-2-yl)cyclohexyl)methyl)carbamoyl)cyclohexyl (1-methylpiperidin-4-yl)carbamate]: the EC50 was at most 250 nM.

The values are drawn from US20220089575A1, “FARNESOID X RECEPTOR AGONISTS AND USES THEREOF” (Metacrine, Inc., priority 2017, published 2022).
